Measurements published in patent publication US20220195059A1, “Rank Pathway Inhibitors in Combination with CDK Inhibitors” (INSTITUTO DE MEDICINA MOLECULAR JOÃO LOBO ANTUNES, priority 2019, published 2022).

Columns and labels:
[1] = tested on: MDA-MB-231 GFP+Luc+ xenografts; assay: Pilot study, orthotopic TNBC xenografts; format: in vivo, NSG mice; conditions: measured throughout the experiment; between groups
Protocol: A pilot study to test the sensitivity of TNBC xenografts to CDK4/6 inhibitors (palbociclib) in combination with RANK pathway blockage (OPG-Fc) was performed. […] As shown in this figure, body weight was not different between groups. The proliferation index of tumors as measured by the quantification of Ki67-positive cells and p-pRB positive cells is shown in FIG. 13D. FIG. 13C is a series of images of Ki67-stained or p-pRb stained cells.

[2] = tested on: MDA-MB-231 TNBC cells; assay: Alamar blue viability assay, MDA-MB-231 TNBC cells with or without RANK knockdown; format: cell-based, human; conditions: 7 days
Protocol: For lentiviral transduction, MDA-MB-231GFP+Luc+ cells were seeded in 24-well plates, at a density of 4×10^4 cells/well. 24 hours after seeding, medium was replaced by fresh medium containing 8 μg/ml Polybrene (Sigma) and RANK shRNA (h) lentiviral particles (15-20 μl/well; sc-42960-V, Santa Cruz) or control shRNA lentiviral particles (15-20 μl/well; sc-108080, Santa Cruz). Cells were selected with 0.5 μg/mL Puromycin dihydrochloride (Sigma) starting three days after transduction.
(§1) Cells were seeded in 96 well-plates (2-5×10^4 cells/mL), with or without paclitaxel (Y0000698, Sigma), doxorubicin hydrochloride (D2975000, Sigma), palbociclib (PD 0332991 isethionate, PZ0199, Sigma), ribociclib (LEE011 succinate, SC-488174, Santa Cruz), abemaciclib mesylate (LY2835219, S7158, Selleckchem), fulvestrant (S1191, Selleckchem), everolimus (#73122, StemCell Technologies), full length human OPG (SRP3132, Sigma), and OPG-Fc (Amgen). Medium was replaced every 2 days. After 7 days, 1:10 Alamar blue (Invitrogen) was added to each well and fluorescence was measured 2 hours after incubation (excitation 560 nm; emission 590 nm) in an Infinite M200 microplate reader (Tecan).
RANK KD clones were first generated for use in sensitivity assays. Briefly, MCF-7GFP+Luc+ cells were seeded in multi-well plates and then exposed to fresh medium comprising RANK shRNA (h) lentiviral particles or control shRNA lentiviral particles. The transduced cells were selected using Puromycin dihydrochloride starting three days post-transduction.

[3] = tested on: cyclin D1, CDK4, CDK6, Cyclin E and CDK2 expression in RANK OE (MCF-7 OE) cells; assay: Western blot of proteins involved in cyclin/CDKs complexes; format: cell-based, human; conditions: 0, 24 or 72 hours
Protocol: Membranes were blocked for 1 h at room temperature (RT) in 5% Non-Fat Dry Milk (NFDM) in PBS-0.1% Tween (PBST) for β-actin; or in 5% bovine serum albumin (BSA) (Santa Cruz) for other antibodies. […] Proteins were detected using a Novex® ECL HRP chemiluminescent substrate reagent kit (Invitrogen) according to the manufacturer's instructions, and x-ray films (Fujifilm) developed in a Curix 60 processor (AGFA), or the Amersham™ Imager 680 (GE Healthcare Life Sciences). Normalized protein expression was calculated using FIJI software and band densitometry analysis.
Briefly, expression of cyclin D1, CDK4, CDK6, Cyclin E and CDK2 were analyzed by Western blotting cell lysates of RANK OE (MDF-7 OE) cells exposed to palbociclib for 0 hours, 24 hours or 72 hours, and compared to the corresponding expression levels in the parental counterpart cells (expressing low levels of RANK; MCF-7 cells). […]

[4] = tested on: TNBC cells (MDA-MB-231, MDA-MB-436, MDA-MB-468, MDA-MB-157, HCC1937, BT-20); assay: Alamar blue viability assay, TNBC cell lines with or without OPG-Fc; format: cell-based, human; conditions: 7 days
Protocol: as §1
Medium was replaced every two days, and viability was assessed by Alamar blue assay.
Cells were seeded in 96 well-plates (2-5×10^4 cells/mL), with or without palbociclib (PD 0332991 isethionate, PZ0199, Sigma), ribociclib (LEE011 succinate, SC-488174, Santa Cruz), abemaciclib mesylate (LY2835219, S7158, Selleckchem), 3-ATA (sc-202414, Santa Cruz), Cdk4 inhibitor Ill (sc-202988, Santa Cruz), seliciclib (S1153, Selleckchem), and OPG-Fc (PL-33324, Amgen). Medium was replaced every 2 days. After 7 days, 1:10 Alamar blue (Invitrogen) was added to each well and fluorescence was measured 2 hours after incubation (excitation 560 nm; emission 590 nm) in an Infinite M200 microplate reader (Tecan).

In the case of `CC(=O)c1c(C)c2cnc(Nc3ccc(N4CCNCC4)cn3)nc2n(C2CCCC2)c1=O` [palbociclib], the body weight [1] is reported as “not different”, the “sensitivity to CDK4/6 inhibitor (cell viability)” value ([2]; MDA-231 cells and MDA-231 shControl cells) is reported as “resistance” and the “sensitivity to CDK4/6 inhibitor (cell viability)” value ([2]; TNBC RANK KD cells (MDA-231 shRANK) vs RANK expressing cells) is reported as “restored sensitivity”. For the same molecule, the “CyclinD1, CDK4 and CDK2 expression upon exposure to CDK4/6 inhibitor” value [3] was “increased” and the “sensitivity of TNBC cells to CDK4/6 inhibitor (cell viability)” value [4] was “resistance”.
